The target in assay [1] is T1, ACVR2B (Homo sapiens, UniProt Q13705).
T1 construct: purchased Eurofins DiscoverX KINOMEscan
As to the kind of experiment: KINOMEscan 1 μM, ACVR2B. The class given is binding. Particulars: 1000 nM; Entrez ACVR2B; read-out: Percent Control. The text has this:
(§1) Supplement cells-12-00287-s001.zip/File S2. KinomeScan data for the CAMKK2 probe and negative control.xlsx, sheet "SGC-CAMKK2-1" | column: Percent Control

For assay [2], the target named is T2, PAK2 (Homo sapiens, UniProt Q13177).
T2 construct: purchased Eurofins DiscoverX KINOMEscan
The assay can be described thus: KINOMEscan 1 μM, PAK2. The class given is binding. Particulars: 1000 nM; Entrez PAK2; read-out: Percent Control.
Text: as §1

Assay [3] concerns the target T3, KIT(A829P) (Homo sapiens, UniProt P10721, A829P).
T3 construct: purchased Eurofins DiscoverX KINOMEscan
The assay can be described thus: KINOMEscan 1 μM, KIT(A829P). The format is binding. Particulars: 1000 nM; Entrez KIT; read-out: Percent Control.
Text: as §1

In assay [4] the target is T4, MLCK (Homo sapiens, UniProt Q32MK0).
T4 construct: purchased Eurofins DiscoverX KINOMEscan
The assay can be described thus: KINOMEscan 1 μM, MLCK. The format is binding. Particulars: 1000 nM; Entrez MYLK3; read-out: Percent Control.
Text: as §1

The target of assay [5] is T5, FLT3(N841I) (Homo sapiens, UniProt P36888, N841I).
T5 construct: purchased Eurofins DiscoverX KINOMEscan
The assay can be described thus: KINOMEscan 1 μM, FLT3(N841I). The class given is binding. Particulars: 1000 nM; Entrez FLT3; read-out: Percent Control.
Text: as §1

The target in assay [6] is T6, AKT3 (Homo sapiens, UniProt Q9Y243).
T6 construct: purchased Eurofins DiscoverX KINOMEscan
As to the kind of experiment: KINOMEscan 1 μM, AKT3. The format is binding. Particulars: 1000 nM; Entrez AKT3; read-out: Percent Control.
Text: as §1

In assay [7] the target is T7, BIKE (Homo sapiens, UniProt Q9NSY1).
T7 construct: purchased Eurofins DiscoverX KINOMEscan
As to the kind of experiment: KINOMEscan 1 μM, BIKE. The class given is binding. Particulars: 1000 nM; Entrez BMP2K; read-out: Percent Control.
Text: as §1

Assay [8] concerns the target T8, CDK2 (Homo sapiens, UniProt P24941).
T8 construct: purchased Eurofins DiscoverX KINOMEscan
As to the kind of experiment: KINOMEscan 1 μM, CDK2. The format is binding. Particulars: 1000 nM; Entrez CDK2; read-out: Percent Control.
Text: as §1

Assay [9] addresses T9, ERBB4 (Homo sapiens, UniProt Q15303).
T9 construct: purchased Eurofins DiscoverX KINOMEscan
The assay can be described thus: KINOMEscan 1 μM, ERBB4. The class given is binding. Particulars: 1000 nM; Entrez ERBB4; read-out: Percent Control.
Text: as §1

The target in assay [10] is T10, MLK1 (Homo sapiens, UniProt P80192).
T10 construct: purchased Eurofins DiscoverX KINOMEscan
As to the kind of experiment: KINOMEscan 1 μM, MLK1. The class given is binding. Particulars: 1000 nM; Entrez MAP3K9; read-out: Percent Control.
Text: as §1

Assay [11] addresses T11, MLK2 (Homo sapiens, UniProt Q02779).
T11 construct: purchased Eurofins DiscoverX KINOMEscan
As to the kind of experiment: KINOMEscan 1 μM, MLK2. The class given is binding. Particulars: 1000 nM; Entrez MAP3K10; read-out: Percent Control.
Text: as §1

Assay [12] addresses T12, NEK3 (Homo sapiens, UniProt P51956).
T12 construct: purchased Eurofins DiscoverX KINOMEscan
As to the kind of experiment: KINOMEscan 1 μM, NEK3. The class given is binding. Particulars: 1000 nM; Entrez NEK3; read-out: Percent Control.
Text: as §1

For assay [13], the target named is T13, PKAC-beta (Homo sapiens, UniProt P22694).
T13 construct: purchased Eurofins DiscoverX KINOMEscan
The assay can be described thus: DiscoverX KINOMEscan binding assay at 1 μM, PKAC-beta. Particulars: PKAC-beta (PRKACB); Compound Concentration 1000 nM; read-out: Percent Control.
Text: as §1

Assay [14] concerns the target T14, S6K1 (Homo sapiens, UniProt P23443).
T14 construct: purchased Eurofins DiscoverX KINOMEscan
The assay can be described thus: DiscoverX KINOMEscan binding assay at 1 μM, S6K1. Particulars: S6K1 (RPS6KB1); Compound Concentration 1000 nM; read-out: Percent Control.
Text: as §1

The target of assay [15] is T15, ALK(C1156Y) (Homo sapiens, UniProt Q9UM73, C1156Y).
T15 construct: purchased Eurofins DiscoverX KINOMEscan
T15 sequence (Q9UM73 19-1620 C1156Y): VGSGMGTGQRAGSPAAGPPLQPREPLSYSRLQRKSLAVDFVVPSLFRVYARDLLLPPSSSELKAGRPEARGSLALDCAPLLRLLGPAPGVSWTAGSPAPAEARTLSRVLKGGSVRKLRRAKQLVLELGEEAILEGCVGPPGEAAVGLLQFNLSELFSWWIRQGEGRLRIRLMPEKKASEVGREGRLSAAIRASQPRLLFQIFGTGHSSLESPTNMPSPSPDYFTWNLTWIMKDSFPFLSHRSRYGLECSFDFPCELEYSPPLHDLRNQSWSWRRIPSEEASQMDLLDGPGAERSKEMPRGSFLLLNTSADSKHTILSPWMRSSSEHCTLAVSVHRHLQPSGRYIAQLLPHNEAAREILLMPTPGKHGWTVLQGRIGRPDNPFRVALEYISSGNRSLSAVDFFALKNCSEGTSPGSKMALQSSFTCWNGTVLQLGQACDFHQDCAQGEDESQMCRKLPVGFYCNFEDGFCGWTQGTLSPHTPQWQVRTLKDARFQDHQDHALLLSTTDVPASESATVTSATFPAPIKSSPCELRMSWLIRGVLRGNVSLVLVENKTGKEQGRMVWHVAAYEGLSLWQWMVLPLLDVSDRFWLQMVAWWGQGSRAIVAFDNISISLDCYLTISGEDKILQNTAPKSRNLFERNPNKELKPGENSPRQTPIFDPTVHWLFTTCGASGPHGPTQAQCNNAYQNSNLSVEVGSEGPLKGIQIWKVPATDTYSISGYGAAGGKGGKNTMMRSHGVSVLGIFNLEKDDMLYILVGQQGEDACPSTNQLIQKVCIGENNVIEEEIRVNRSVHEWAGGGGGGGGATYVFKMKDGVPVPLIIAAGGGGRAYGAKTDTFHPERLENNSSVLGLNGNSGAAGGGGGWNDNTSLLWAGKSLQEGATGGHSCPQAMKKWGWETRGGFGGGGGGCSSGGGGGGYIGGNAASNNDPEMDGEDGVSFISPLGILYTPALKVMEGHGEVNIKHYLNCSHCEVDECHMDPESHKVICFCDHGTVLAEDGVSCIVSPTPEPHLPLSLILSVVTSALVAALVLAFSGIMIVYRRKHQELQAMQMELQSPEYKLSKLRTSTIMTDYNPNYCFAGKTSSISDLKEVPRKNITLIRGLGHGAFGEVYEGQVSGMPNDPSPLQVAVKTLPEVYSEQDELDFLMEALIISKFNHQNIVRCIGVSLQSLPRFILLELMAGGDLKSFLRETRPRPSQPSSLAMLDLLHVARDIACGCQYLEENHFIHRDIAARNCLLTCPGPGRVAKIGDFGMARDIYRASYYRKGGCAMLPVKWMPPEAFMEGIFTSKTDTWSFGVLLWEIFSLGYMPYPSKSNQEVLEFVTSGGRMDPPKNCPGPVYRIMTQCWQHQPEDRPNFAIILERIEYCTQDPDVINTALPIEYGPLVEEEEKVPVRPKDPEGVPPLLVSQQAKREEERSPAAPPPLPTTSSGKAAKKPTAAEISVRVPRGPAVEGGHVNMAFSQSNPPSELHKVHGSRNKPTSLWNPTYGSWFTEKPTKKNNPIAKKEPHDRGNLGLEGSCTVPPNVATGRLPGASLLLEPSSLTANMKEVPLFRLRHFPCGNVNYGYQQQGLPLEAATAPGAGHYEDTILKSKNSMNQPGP
As to the kind of experiment: KINOMEscan at 1 μM, ALK(C1156Y). The class given is binding. Particulars: 1000 nM, read-out: Percent Control. The text has this: (§2) Supplement cells-12-00287-s001.zip/File S2. KinomeScan data for the CAMKK2 probe and negative control.xlsx, sheet "SGC-CAMKK2-1N" | column: Percent Control

In assay [16] the target is T16, PIK4CB (Homo sapiens, UniProt Q9UBF8).
T16 construct: purchased Eurofins DiscoverX KINOMEscan
As to the kind of experiment: KINOMEscan at 1 μM, PIK4CB. The class given is binding. Particulars: 1000 nM, read-out: Percent Control.
Text: as §2

In assay [17] the target is T17, ASK2 (Homo sapiens, UniProt O95382).
T17 construct: purchased Eurofins DiscoverX KINOMEscan
The assay can be described thus: KINOMEscan at 1 μM, ASK2. The class given is binding. Particulars: 1000 nM, read-out: Percent Control.
Text: as §2

The target of assay [18] is T18, TAK1 (Homo sapiens, UniProt O43318).
T18 construct: purchased Eurofins DiscoverX KINOMEscan
As to the kind of experiment: KINOMEscan at 1 μM, TAK1. The format is binding. Particulars: 1000 nM, read-out: Percent Control.
Text: as §2

Assay [19] concerns the target T19, ROCK2 (Homo sapiens, UniProt O75116).
T19 construct: purchased Eurofins DiscoverX KINOMEscan
As to the kind of experiment: KINOMEscan at 1 μM, ROCK2. Particulars: 1000 nM, read-out: Percent Control. The class given is binding.
Text: as §2

Assay [20] addresses T20, DLK (Homo sapiens, UniProt Q12852).
T20 construct: purchased Eurofins DiscoverX KINOMEscan
As to the kind of experiment: KINOMEscan at 1 μM, DLK. Particulars: 1000 nM, read-out: Percent Control. The format is binding.
Text: as §2

Assay [21] concerns the target T21, BUB1 (Homo sapiens, UniProt O43683).
T21 construct: purchased Eurofins DiscoverX KINOMEscan
The assay can be described thus: KINOMEscan at 1 μM, BUB1. Particulars: 1000 nM, read-out: Percent Control. The class given is binding.
Text: as §2

Assay [22] has as its target T22, ULK3 (Homo sapiens, UniProt Q6PHR2).
T22 construct: purchased Eurofins DiscoverX KINOMEscan
As to the kind of experiment: KINOMEscan at 1 μM, ULK3. Particulars: 1000 nM, read-out: Percent Control. The class given is binding.
Text: as §2

In assay [23] the target is T9, ERBB4. As to the kind of experiment: KINOMEscan at 1 μM, ERBB4. The class given is binding. Particulars: 1000 nM, read-out: Percent Control.
Text: as §2

Assay [24] addresses T23, NLK (Homo sapiens, UniProt Q9UBE8).
T23 construct: purchased Eurofins DiscoverX KINOMEscan
The assay can be described thus: KINOMEscan at 1 μM, NLK. The class given is binding. Particulars: 1000 nM, read-out: Percent Control.
Text: as §2

Assay [25] addresses T24, IKK-beta (Homo sapiens, UniProt O14920).
T24 construct: purchased Eurofins DiscoverX KINOMEscan
The assay can be described thus: KINOMEscan at 1 μM, IKK-beta. Particulars: 1000 nM, read-out: Percent Control. The class given is binding.
Text: as §2

Assay [26] addresses T25, PIP5K1A (Homo sapiens, UniProt Q99755).
T25 construct: purchased Eurofins DiscoverX KINOMEscan
As to the kind of experiment: KINOMEscan at 1 μM, PIP5K1A. The class given is binding. Particulars: 1000 nM, read-out: Percent Control.
Text: as §2

Assay [27] addresses T26, HIPK4 (Homo sapiens, UniProt Q8NE63).
T26 construct: purchased Eurofins DiscoverX KINOMEscan
As to the kind of experiment: KINOMEscan at 1 μM, HIPK4. The class given is binding. Particulars: 1000 nM, read-out: Percent Control.
Text: as §2

The target in assay [28] is T27, CDK8 (Homo sapiens, UniProt P49336).
T27 construct: purchased Eurofins DiscoverX KINOMEscan
T27 sequence (P49336 whole entry): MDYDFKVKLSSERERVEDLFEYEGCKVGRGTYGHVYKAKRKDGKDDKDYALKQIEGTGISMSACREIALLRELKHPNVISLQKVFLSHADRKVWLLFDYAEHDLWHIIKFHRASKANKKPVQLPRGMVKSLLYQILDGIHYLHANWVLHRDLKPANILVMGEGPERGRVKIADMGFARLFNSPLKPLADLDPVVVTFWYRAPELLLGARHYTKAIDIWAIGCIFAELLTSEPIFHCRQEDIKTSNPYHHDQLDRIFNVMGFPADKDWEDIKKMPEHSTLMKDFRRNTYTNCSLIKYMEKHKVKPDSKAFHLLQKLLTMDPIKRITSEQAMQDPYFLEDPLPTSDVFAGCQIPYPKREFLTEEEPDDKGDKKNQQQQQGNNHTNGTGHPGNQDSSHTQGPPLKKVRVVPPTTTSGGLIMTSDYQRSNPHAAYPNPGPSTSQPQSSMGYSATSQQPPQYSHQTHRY
As to the kind of experiment: KINOMEscan at 1 μM, CDK8. The class given is binding. Particulars: 1000 nM, read-out: Percent Control.
Text: as §2

For assay [29], the target named is T28, GSK3A (Homo sapiens, UniProt P49840).
T28 construct: purchased Eurofins DiscoverX KINOMEscan
As to the kind of experiment: KINOMEscan binding assay at 1 μM, GSK3A. Particulars: Compound Concentration 1000 nM; read-out: Percent Control.
Text: as §2

Assay [30] addresses T29, PIK3CD (Homo sapiens, UniProt O00329).
T29 construct: purchased Eurofins DiscoverX KINOMEscan
As to the kind of experiment: KINOMEscan binding assay at 1 μM, PIK3CD. Particulars: Compound Concentration 1000 nM; read-out: Percent Control.
Text: as §2

Assay [31] deals with T30, PRKCD (Homo sapiens, UniProt Q05655).
T30 construct: purchased Eurofins DiscoverX KINOMEscan
As to the kind of experiment: KINOMEscan binding assay at 1 μM, PRKCD. Particulars: Compound Concentration 1000 nM; read-out: Percent Control.
Text: as §2

In assay [32] the target is T31, RET(V804M) (Homo sapiens, UniProt P07949, V804M).
T31 construct: purchased Eurofins DiscoverX KINOMEscan
The assay can be described thus: KINOMEscan binding assay at 1 μM, RET(V804M). Particulars: Compound Concentration 1000 nM; read-out: Percent Control.
Text: as §2

In assay [33] the target is T32, ROS1 (Homo sapiens, UniProt P08922).
T32 construct: purchased Eurofins DiscoverX KINOMEscan
The assay can be described thus: KINOMEscan binding assay at 1 μM, ROS1. Particulars: Compound Concentration 1000 nM; read-out: Percent Control.
Text: as §2

The target of assay [34] is T33, RSK3(Kin.Dom.1-N-terminal) (Homo sapiens, UniProt Q15349).
T33 construct: RSK3(Kin.Dom.1-N-terminal); purchased Eurofins DiscoverX KINOMEscan
T33 sequence (Q15349 1-388 limits assumed): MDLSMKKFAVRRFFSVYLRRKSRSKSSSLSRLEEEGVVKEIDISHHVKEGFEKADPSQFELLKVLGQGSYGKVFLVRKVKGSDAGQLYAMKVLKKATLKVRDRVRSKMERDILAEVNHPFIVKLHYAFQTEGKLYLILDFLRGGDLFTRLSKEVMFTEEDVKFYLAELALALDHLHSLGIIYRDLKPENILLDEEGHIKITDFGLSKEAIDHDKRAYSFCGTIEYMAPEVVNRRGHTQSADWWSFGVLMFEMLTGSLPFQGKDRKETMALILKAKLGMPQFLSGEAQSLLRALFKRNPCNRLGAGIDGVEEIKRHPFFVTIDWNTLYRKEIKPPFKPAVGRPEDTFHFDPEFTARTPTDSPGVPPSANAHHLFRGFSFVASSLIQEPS
As to the kind of experiment: KINOMEscan binding assay at 1 μM, RSK3(Kin.Dom.1-N-terminal). Particulars: Compound Concentration 1000 nM; read-out: Percent Control.
Text: as §2

T9 sequence (Q15303 26-1308): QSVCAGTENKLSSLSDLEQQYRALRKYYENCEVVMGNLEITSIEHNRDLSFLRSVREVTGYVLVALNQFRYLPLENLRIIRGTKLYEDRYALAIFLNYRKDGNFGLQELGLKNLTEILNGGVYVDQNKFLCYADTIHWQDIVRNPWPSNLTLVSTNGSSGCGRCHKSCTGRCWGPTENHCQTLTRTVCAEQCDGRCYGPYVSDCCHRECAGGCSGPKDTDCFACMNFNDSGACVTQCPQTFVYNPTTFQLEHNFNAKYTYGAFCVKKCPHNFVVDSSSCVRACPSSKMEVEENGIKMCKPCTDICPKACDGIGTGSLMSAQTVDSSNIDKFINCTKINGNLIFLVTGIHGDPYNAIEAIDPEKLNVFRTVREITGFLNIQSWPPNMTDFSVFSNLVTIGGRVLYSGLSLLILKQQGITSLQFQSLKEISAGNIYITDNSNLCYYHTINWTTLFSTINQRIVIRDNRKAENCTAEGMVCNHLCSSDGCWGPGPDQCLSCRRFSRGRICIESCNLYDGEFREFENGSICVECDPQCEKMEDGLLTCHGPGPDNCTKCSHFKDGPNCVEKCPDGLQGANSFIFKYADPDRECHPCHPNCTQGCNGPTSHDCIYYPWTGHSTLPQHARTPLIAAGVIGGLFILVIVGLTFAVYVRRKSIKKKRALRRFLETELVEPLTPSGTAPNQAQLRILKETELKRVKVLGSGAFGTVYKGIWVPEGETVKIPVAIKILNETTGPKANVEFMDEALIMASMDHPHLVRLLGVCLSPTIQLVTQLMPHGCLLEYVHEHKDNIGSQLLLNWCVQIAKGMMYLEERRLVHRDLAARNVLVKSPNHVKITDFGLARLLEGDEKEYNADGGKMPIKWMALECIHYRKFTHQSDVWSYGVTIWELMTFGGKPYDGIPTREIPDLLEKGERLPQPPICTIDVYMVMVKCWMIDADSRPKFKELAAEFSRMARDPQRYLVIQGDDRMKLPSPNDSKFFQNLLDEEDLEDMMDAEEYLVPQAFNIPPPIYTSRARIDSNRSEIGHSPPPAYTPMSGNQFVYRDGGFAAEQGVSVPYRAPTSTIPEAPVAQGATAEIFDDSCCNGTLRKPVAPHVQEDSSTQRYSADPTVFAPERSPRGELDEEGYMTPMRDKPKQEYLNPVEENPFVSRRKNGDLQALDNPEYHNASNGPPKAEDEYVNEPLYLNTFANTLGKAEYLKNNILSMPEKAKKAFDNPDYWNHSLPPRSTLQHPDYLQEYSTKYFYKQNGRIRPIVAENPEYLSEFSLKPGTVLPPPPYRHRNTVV
T19 sequence (O75116 whole entry): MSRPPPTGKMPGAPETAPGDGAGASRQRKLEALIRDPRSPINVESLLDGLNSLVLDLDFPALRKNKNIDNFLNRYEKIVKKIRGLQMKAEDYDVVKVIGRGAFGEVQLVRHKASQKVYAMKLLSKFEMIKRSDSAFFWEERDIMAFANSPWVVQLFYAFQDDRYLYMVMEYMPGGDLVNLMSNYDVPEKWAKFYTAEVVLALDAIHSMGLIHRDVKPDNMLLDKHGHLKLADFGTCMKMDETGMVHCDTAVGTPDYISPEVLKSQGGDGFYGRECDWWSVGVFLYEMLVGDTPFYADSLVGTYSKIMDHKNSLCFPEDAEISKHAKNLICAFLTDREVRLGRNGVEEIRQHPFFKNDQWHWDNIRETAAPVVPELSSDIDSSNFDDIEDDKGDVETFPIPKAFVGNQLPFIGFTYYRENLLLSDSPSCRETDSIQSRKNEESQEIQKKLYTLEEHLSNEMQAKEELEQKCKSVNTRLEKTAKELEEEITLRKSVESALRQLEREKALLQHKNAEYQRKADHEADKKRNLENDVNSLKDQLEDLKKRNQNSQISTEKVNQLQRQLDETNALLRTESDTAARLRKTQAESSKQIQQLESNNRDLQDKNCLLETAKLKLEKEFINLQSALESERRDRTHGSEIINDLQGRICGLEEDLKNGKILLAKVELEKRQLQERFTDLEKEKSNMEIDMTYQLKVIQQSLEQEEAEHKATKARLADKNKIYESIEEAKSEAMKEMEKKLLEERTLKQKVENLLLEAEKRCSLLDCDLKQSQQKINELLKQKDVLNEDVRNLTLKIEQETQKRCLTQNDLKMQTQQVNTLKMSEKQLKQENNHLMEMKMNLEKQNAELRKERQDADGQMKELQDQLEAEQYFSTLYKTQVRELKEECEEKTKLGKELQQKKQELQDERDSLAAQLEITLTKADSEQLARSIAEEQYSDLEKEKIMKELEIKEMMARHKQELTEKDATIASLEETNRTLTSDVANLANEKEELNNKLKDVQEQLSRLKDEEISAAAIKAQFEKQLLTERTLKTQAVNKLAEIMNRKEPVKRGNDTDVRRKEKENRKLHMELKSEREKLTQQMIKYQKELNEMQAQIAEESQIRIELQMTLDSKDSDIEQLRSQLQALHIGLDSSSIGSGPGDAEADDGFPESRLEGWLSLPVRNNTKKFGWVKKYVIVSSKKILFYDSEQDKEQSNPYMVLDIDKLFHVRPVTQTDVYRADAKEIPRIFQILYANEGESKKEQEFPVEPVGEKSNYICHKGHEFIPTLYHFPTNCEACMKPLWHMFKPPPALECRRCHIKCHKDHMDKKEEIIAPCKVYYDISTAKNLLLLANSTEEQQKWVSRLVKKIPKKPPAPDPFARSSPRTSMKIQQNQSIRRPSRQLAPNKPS

Turning to `Cc1cccc(-c2cnc3occ(-c4ccc(C(=O)O)c(C5CCCC5)c4)c3c2)c1` [SGC-CAMKK2-1 (YL-36)], the remaining binding at 1 µM came out at 43% in assay [1]; 55% in assay [2]; 61% in assay [3]; 86% in assay [4]; 95% in assay [5]; 100% in assay [6]. Moreover, the remaining binding at 1 µM in assay [7], in [8], in [9], in [10], in assay [11] and in [12] was 100% each time. The remaining binding at 1 µM in assay [13] and in assay [14] was 100% throughout.
Regarding `O=C(O)c1ccc(-c2coc3ncc(-c4ccccc4)cc23)cc1Cl` [SGC-CAMKK2-1N (UNC-YL-83)], the remaining binding at 1 µM amounted to 0% in [15]; 54% in assay [16]; 56% in assay [17]; 62% in assay [18]; 70% in assay [19]; 77% in [20]. Besides, the remaining binding at 1 µM in assay [21] was determined as 79%; in assay [22], 82%; in assay [23], 83%; in [24], 84%; in assay [25] it was 87%; in assay [26], 87%. Moreover, the remaining binding at 1 µM in [27] was found to be 89%; in assay [28], 100%; in assay [29] it was 100%; in assay [30], 100%; in [31], 100%; in assay [32] it was 100%. Besides, the remaining binding at 1 µM in [33] and in [34] was 100% in each case.

Values taken from article PMC9856672, “SGC-CAMKK2-1: A Chemical Probe for CAMKK2” (Cells, 2023).
